Experimental data as given in article PMC11489133, “Obicetrapib exhibits favorable physiochemical and pharmacokinetic properties compared to previous cholesteryl ester transfer protein inhibitors: An integrated summary of results from non‐human primate studies and clinical trials” (Pharmacology Research & Perspectives, 2024).
Like-named read-outs stand apart in the source and are kept apart here.

What was measured:
[1] = disposition of 14C-obicetrapib after a single oral dose of 20 mg/kg in the cynomolgus monkey; assay type: in vivo; details: urine and feces samples
Procedure: Figure 1 illustrates the metabolism of obicetrapib (TA‐8995) in the cynomolgus monkey. A study was conducted to examine the disposition of ^14C‐obicetrapib following oral administration in the cynomolgus monkey (n = 3 males) at a dose level of 20 mg/kg. […] The monkeys each received a single oral dose of ^14C‐obicetrapib by gavage at a target dose level of 20 mg/kg and a nominal dose volume of 5 mL/kg. […] After the final blood collection, radioactivity was measured in the blood and plasma by liquid scintillation counting. The profile of M1 in selected samples of plasma was determined by high‐performance liquid chromatography (HPLC) (following extraction of the matrix, where relevant) and selected M1 were identified by liquid chromatography mass spectrometry. In plasma, unchanged obicetrapib and a M1 were the principal radioactive components and represented at least 66% of the chromatographic radioactivity in any single profile.

[2] = TULIP Phase II trial, plasma concentrations of obicetrapib; assay type: in vivo, humans; details: any of the participants
[3] = Phase II trials of obicetrapib, integrated summary of post-treatment elimination; assay type: in vivo, humans
From the text: The Phase II trials of obicetrapib described herein include the TA‐8995: Its Use in Patients with Mild Dyslipidaemia (TULIP)[10] study, the Randomized Study of Obicetrapib as an Adjunct to Statin Therapy (ROSE),[11] the Study to Evaluate the Effect of Obicetrapib in Combination with Ezetimibe as an Adjunct to High‐Intensity Statin Therapy (ROSE2),[12] and A Dose‐Finding Study in Japanese Patients to Evaluate the Effect of Obicetrapib as an Adjunct to Stable Statin Therapy (TA‐8995‐203).[13]

[4] = design: method as in PMID 24628035; details: cited from earlier work; for t ½ (terminal half‐life) / AUC (0–24 h) / C max / t max: fasting; for t ½ (terminal half‐life): arithmetic mean (CV%); for AUC (0–24 h) / C max: geometric mean (CV%); for C max: healthy White males
[5] = pH 7.4; cited from earlier work
[6] = cited from earlier work

For `CCOC(=O)N1c2ccc(C(F)(F)F)cc2C(N(Cc2cc(C(F)(F)F)cc(C(F)(F)F)c2)c2ncc(OCCCC(=O)O)cn2)CC1CC` (stereo not drawn) [Obicetrapib], the metabolism of obicetrapib [1] was “extensive”, the obicetrapib in urine [2] was “not detected” and the “decrease of plasma levels of obicetrapib” value ([3]; 15 weeks post‐treatment) was 98.5%. For the same molecule, the “decrease of plasma levels of obicetrapib” value ([3]; four weeks post‐treatment) was 92.2%, the “effect of food on the AUC or C max” value ([4]; 50 mg dose, fed versus fasted, n = 5 White healthy males) was “did not have a clinically relevant effect” and the “effects of food, age, gender, or ethnicity on the PK parameters” value ([4]; PK assessment results of the other groups) was “no clinically relevant effects”. For the same molecule, the “t ½ (terminal half‐life)” value ([4]; single dose 5 mg) was 125 (22%) h, the “AUC (0–24 h)” value ([4]; single dose 5 mg) was 1816 (34%) ng·h/mL and the C max ([4]; single dose 5 mg) was 138 (33%) ng/mL. For the same molecule, the t max ([4]; single dose 5 mg, median (minimum, maximum)) was 3 (2, 3) h, the t max ([4]; single dose 5 mg, median (minimum, maximum), listed as obicetrapib) was ≤ 3 h and the “t ½ (terminal half‐life)” value ([4]; single dose 10 mg) was 124 (20%) h. For the same molecule, the “AUC (0–24 h)” value ([4]; single dose 10 mg) was 3580 (21%) ng·h/mL, the C max ([4]; single dose 10 mg) was 251 (23%) ng/mL and the t max ([4]; single dose 10 mg, median (minimum, maximum)) was 3 (2, 5) h. For the same molecule, the t max ([4]; single dose 10 mg, median (minimum, maximum), listed as obicetrapib) was ≤ 3 h, the “t ½ (terminal half‐life)” value ([4]; single dose 25 mg) was 162 (19%) h and the “AUC (0–24 h)” value ([4]; single dose 25 mg) was 5952 (26%) ng·h/mL. For the same molecule, the C max ([4]; single dose 25 mg) was 467 (30%) ng/mL, the t max ([4]; single dose 25 mg, median (minimum, maximum)) was 3.5 (2, 6) h and the t max ([4]; single doses 50–150 mg) was 4 h. For the same molecule, the obicetrapib in urine ([4]; single doses, any participant) was “not detected”, the cLogDpH7.4 [5] was 4.9 and the PSA [6] was 105 Å^2.
